# Legend:
# [1] = biological target: T1, Alpha-2B adrenergic receptor (Homo sapiens, UniProt P18089)
# T1 sequence (P18089 whole entry): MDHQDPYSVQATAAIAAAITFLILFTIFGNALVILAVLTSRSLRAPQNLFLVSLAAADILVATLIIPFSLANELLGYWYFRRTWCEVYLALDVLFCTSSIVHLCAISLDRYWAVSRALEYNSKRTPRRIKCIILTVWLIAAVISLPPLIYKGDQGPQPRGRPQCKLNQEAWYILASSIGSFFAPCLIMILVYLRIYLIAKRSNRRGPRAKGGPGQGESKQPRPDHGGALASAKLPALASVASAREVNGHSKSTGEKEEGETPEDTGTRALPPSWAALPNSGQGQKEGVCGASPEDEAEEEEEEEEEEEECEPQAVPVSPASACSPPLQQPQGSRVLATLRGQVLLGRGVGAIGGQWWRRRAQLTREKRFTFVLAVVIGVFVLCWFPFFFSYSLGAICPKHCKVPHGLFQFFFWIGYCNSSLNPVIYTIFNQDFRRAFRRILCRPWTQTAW
# [2] = biological target: T2, Beta-2 adrenergic receptor (Homo sapiens, UniProt P07550); type: functional, cell-based
# [3] = biological target: T2, Beta-2 adrenergic receptor
# [4] = biological target: Voltage-dependent L-type calcium channel subunit alpha-1C (Rattus norvegicus, UniProt P22002); type: functional
# [5] = biological target: T3, Gastrin/cholecystokinin type B receptor (Homo sapiens, UniProt P32239)
# T3 sequence (P32239 whole entry): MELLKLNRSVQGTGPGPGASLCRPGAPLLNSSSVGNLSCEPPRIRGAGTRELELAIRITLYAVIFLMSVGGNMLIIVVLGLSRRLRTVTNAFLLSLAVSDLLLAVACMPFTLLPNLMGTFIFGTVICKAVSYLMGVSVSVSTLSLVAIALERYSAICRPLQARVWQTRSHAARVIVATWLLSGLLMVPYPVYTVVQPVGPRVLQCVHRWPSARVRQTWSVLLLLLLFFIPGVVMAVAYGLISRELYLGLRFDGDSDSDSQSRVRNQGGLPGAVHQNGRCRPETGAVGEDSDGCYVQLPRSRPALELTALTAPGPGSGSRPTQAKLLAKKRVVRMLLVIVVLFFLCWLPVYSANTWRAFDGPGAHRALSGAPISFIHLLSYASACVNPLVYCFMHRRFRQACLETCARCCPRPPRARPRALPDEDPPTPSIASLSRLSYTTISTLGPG
# [6] = biological target: Cannabinoid receptor 1 (Homo sapiens, UniProt P21554); type: functional, cell-based
# [7] = biological target: T4, D(1A) dopamine receptor (Homo sapiens, UniProt P21728); type: functional, cell-based
# [8] = biological target: T5, Estrogen receptor (Homo sapiens, UniProt P03372)
# T5 sequence (P03372 whole entry): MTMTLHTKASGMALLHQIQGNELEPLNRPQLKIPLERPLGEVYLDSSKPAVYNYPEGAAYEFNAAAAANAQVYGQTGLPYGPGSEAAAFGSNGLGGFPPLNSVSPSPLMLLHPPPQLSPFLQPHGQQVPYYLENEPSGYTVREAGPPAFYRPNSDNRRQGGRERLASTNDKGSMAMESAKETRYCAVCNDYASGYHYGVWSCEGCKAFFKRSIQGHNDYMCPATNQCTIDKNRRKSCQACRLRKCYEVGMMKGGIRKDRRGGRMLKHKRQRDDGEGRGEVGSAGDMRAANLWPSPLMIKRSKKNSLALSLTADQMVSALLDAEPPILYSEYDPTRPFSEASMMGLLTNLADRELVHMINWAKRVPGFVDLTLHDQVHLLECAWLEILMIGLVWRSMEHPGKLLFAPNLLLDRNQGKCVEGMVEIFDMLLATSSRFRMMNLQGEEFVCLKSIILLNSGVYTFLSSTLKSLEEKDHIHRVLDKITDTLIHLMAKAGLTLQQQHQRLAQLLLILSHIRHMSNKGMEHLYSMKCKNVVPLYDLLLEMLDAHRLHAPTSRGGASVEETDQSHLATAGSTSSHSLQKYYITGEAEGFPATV
# [9] = biological target: 5-hydroxytryptamine receptor 2B (Homo sapiens, UniProt P41595); type: functional, cell-based
# [10] = biological target: Kappa-type opioid receptor (Homo sapiens, UniProt P41145)
# [11] = biological target: T4, D(1A) dopamine receptor
# [12] = biological target: T6, 5-hydroxytryptamine receptor 1A (Homo sapiens, UniProt P08908)
# T6 sequence (P08908 whole entry): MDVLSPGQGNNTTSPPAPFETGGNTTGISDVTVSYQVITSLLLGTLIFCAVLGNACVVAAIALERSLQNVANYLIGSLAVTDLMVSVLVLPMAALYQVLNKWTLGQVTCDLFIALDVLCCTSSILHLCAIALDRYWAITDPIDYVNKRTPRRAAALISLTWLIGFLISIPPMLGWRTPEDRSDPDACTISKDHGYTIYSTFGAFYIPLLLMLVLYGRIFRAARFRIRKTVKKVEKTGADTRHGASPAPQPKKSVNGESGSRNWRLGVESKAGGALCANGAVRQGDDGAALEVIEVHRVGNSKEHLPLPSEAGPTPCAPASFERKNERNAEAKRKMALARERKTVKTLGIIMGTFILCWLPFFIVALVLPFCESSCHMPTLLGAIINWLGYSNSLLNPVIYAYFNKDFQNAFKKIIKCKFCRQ
# [13] = biological target: Mu-type opioid receptor (Homo sapiens, UniProt P35372)
# [14] = biological target: Prostaglandin G/H synthase 1 (Homo sapiens, UniProt P23219); type: functional
# [15] = biological target: T7, Thromboxane A2 receptor (Homo sapiens, UniProt P21731); type: functional, cell-based
# T7 sequence (P21731 whole entry): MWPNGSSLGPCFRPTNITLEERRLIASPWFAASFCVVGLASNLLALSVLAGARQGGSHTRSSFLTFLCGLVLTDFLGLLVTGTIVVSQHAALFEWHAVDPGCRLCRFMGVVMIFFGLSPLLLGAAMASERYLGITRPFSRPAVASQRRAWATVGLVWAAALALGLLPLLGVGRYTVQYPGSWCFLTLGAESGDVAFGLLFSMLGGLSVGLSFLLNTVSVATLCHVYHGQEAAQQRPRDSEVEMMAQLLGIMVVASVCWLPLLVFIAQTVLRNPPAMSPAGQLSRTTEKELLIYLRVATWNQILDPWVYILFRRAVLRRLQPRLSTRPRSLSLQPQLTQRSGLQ
# Further: assay procedure not described here.
# Voltage-dependent L-type calcium channel subunit alpha-1C, sequence (P22002 whole entry): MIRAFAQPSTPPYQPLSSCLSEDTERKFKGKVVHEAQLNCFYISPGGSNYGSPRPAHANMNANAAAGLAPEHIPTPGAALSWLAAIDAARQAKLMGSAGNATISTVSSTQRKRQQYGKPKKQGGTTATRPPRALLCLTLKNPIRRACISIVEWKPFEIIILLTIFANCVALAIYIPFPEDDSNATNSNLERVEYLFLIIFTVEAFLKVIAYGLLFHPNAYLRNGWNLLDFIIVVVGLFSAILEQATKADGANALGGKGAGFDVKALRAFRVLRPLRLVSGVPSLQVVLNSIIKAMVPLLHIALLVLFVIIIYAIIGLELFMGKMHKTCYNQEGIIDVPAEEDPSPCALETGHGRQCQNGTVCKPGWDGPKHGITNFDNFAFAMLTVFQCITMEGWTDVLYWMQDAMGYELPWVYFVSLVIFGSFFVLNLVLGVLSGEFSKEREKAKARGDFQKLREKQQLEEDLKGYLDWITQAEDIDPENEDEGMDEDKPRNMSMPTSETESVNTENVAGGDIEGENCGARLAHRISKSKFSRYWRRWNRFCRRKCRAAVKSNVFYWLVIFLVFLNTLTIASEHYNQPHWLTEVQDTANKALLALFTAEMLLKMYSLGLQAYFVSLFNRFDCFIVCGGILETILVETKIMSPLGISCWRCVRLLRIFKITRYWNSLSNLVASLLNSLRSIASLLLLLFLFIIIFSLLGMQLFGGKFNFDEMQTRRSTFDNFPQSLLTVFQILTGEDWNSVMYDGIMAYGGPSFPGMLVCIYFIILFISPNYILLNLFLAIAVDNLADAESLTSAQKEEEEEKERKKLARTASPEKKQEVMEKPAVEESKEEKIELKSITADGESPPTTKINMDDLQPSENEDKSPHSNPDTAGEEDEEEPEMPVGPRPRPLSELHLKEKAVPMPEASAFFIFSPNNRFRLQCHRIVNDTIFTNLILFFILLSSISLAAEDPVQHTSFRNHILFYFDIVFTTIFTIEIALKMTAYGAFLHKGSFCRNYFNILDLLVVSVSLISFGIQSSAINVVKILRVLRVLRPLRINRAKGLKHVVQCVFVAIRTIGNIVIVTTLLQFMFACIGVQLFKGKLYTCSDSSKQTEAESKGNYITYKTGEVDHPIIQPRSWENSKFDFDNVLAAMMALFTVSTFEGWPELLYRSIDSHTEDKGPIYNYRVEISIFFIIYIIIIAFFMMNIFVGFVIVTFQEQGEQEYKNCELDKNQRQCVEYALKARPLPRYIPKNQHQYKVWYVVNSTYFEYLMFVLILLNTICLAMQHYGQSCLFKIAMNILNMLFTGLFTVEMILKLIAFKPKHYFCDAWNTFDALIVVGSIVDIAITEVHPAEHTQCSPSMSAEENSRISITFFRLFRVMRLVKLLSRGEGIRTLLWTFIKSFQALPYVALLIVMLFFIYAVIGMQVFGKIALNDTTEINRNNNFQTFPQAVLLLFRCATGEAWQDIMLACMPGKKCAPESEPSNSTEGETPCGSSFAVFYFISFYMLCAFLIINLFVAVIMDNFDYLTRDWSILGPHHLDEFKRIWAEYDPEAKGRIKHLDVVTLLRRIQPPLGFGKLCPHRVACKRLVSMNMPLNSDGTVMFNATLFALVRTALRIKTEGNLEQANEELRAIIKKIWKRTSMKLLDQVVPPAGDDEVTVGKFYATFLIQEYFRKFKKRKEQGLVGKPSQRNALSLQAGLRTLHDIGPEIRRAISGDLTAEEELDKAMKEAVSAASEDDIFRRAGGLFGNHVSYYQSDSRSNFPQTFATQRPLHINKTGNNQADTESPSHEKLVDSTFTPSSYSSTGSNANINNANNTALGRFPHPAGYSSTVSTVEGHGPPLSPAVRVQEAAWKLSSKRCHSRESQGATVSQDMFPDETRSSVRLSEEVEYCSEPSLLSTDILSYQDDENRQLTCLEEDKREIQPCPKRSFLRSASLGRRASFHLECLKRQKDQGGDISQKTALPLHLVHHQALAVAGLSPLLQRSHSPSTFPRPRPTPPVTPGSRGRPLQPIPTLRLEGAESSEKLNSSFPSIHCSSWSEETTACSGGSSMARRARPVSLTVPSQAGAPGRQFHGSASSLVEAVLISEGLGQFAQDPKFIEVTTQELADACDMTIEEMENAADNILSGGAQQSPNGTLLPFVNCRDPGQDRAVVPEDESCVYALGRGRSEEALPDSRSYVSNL
# Mu-type opioid receptor, sequence (P35372 whole entry): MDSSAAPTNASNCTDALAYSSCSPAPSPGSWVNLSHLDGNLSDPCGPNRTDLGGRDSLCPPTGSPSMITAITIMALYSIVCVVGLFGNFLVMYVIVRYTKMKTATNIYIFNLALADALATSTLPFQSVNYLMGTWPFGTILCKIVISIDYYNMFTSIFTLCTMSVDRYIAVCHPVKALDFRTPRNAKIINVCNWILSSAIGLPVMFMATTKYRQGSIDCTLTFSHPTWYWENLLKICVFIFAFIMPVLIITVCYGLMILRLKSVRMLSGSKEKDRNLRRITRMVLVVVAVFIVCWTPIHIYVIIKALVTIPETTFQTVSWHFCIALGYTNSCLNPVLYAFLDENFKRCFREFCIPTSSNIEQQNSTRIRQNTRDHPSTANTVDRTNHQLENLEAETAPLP
# T2 sequence (P07550 whole entry): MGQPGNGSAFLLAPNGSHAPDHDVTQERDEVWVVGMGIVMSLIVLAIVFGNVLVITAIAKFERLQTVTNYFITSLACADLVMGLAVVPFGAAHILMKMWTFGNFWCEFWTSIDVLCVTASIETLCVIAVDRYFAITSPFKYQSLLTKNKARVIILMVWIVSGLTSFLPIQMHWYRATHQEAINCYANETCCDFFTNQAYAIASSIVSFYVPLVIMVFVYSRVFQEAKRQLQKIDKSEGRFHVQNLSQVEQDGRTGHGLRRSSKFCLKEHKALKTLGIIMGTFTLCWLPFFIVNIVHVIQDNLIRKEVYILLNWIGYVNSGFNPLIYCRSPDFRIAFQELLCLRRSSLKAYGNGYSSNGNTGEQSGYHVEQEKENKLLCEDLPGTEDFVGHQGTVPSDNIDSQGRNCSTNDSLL
# Cannabinoid receptor 1, sequence (P21554 whole entry): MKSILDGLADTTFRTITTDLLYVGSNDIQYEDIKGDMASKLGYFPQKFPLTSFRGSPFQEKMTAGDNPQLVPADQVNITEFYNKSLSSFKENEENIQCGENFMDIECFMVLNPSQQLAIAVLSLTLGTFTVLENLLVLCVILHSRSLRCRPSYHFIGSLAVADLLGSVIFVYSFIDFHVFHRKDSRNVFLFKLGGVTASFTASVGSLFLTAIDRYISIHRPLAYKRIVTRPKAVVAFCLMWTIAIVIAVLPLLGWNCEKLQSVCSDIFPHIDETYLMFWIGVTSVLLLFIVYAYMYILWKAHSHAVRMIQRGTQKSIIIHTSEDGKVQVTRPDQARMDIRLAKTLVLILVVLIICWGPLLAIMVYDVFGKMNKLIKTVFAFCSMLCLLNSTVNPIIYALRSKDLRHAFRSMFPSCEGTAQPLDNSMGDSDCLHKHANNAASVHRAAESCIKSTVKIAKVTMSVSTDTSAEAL
# Prostaglandin G/H synthase 1, sequence (P23219 whole entry): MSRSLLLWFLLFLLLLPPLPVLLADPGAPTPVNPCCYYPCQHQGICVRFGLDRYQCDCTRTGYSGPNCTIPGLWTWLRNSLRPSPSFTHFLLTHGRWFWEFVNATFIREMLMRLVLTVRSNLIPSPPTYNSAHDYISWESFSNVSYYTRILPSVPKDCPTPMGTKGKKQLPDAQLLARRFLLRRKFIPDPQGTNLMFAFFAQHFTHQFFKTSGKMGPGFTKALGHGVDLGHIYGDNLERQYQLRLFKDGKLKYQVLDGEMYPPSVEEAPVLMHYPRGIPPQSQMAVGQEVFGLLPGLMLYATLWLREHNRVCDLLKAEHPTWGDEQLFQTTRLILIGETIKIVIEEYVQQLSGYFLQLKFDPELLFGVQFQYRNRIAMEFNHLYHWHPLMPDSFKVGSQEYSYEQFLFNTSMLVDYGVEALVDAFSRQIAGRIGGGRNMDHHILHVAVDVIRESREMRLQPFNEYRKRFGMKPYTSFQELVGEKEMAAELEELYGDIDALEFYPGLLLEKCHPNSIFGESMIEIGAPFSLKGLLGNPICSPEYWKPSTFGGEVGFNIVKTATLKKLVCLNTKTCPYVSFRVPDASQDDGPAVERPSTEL
# 5-hydroxytryptamine receptor 2B, sequence (P41595 whole entry): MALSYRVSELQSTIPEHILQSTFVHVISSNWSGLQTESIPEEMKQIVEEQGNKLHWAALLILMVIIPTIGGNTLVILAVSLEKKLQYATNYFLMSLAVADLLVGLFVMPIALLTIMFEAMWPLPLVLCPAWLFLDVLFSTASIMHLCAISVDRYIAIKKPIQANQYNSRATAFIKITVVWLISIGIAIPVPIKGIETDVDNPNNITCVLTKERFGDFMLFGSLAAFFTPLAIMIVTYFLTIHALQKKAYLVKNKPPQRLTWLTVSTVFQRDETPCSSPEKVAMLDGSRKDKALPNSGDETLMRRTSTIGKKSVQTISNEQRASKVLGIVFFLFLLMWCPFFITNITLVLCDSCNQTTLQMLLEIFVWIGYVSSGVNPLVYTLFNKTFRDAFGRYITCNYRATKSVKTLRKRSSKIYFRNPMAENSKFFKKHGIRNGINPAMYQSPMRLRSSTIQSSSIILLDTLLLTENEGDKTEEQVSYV
# T4 sequence (P21728 whole entry): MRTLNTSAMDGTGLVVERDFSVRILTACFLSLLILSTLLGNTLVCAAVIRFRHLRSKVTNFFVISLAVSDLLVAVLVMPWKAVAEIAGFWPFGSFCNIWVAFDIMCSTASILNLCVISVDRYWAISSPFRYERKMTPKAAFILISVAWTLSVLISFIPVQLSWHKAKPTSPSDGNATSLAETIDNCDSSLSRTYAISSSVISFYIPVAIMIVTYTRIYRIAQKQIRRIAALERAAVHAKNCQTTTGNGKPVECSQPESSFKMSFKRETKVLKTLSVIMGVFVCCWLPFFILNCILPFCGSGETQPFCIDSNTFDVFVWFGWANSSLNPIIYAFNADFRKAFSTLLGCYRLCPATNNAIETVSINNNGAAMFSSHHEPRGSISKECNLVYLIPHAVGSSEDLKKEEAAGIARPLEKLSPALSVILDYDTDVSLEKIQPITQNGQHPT
Compound,AC50 [1] [µM],AC50 [2] [µM],AC50 [3] [µM],AC50 [4] [µM],AC50 [5] [µM],AC50 [6] [µM],AC50 [7] [µM],AC50 [8] [µM],AC50 [9] [µM],AC50 [10] [µM],AC50 [11] [µM],AC50 [12] [µM],AC50 [13] [µM],AC50 [14] [µM],AC50 [15] [µM]
CC12CC3CC(C)(C1)CC(N)(C3)C2 [MEMANTINE],> 10,> 30,> 10,> 10,> 30,> 30,> 10,1.6,> 10,15.2,,,,,
CN1CCN(C2=Nc3ccccc3Oc3ccc(Cl)cc32)CC1 [LOXAPINE],,> 30,8.8,> 10,> 30,> 30,> 10,> 30,,8.24,0.0245,3.95,8.61,> 30,18.5
O=[N+]([O-])c1ccc(O)c2ncccc12 [NITROXOLINE],8.8,> 30,,,,> 30,> 30,,> 30,9.3,> 30,> 30,> 30,> 30,> 30
CCC(=O)O[C@]1(C(=O)SCF)[C@H](C)C[C@H]2[C@@H]3C[C@H](F)C4=CC(=O)C=C[C@]4(C)[C@@]3(F)[C@@H](O)C[C@@]21C [FLUTICASONE PROPIONATE],> 30,> 30,> 30,> 30,> 30,> 30,> 30,,> 30,> 30,> 30,> 30,> 30,> 30,> 30
CCCCC(=O)O[C@]1(C(=O)CO)[C@@H](C)C[C@H]2[C@@H]3CCC4=CC(=O)C=C[C@]4(C)[C@@]3(F)[C@@H](O)C[C@@]21C [BETAMETHASONE VALERATE],> 10,> 30,> 10,> 10,> 30,> 30,> 10,> 30,> 10,> 10,,,,,
CCCC(CCC)C(N)=O [VALPROMIDE],> 10,> 30,> 10,> 10,> 30,> 30,> 10,> 30,> 10,> 10,,,,,
Cc1cc(C(C)(C)C)cc(C)c1CC1=NCCN1 [XYLOMETAZOLINE],0.208,> 30,> 30,> 30,> 30,> 30,> 30,> 30,1.16,20,,,,,
CCOC(=O)c1cncn1[C@H](C)c1ccccc1 [ETOMIDATE],> 10,> 30,> 10,> 10,,> 30,> 10,> 10,> 10,> 10,,,,,
CN1CCC(=C2c3ccccc3CCc3cccnc32)CC1 [AZATADINE],> 10,> 30,> 10,> 10,> 30,> 30,> 10,> 30,> 10,9.38,,,,,
CN(C)CCCNc1c2ccccc2nc2cccc([N+](=O)[O-])c12 [NITRACRINE],22,> 30,> 30,> 30,> 30,> 30,,> 30,> 30,> 30,,,,,

# Reference: ChEMBL document CHEMBL5291721, “A preclinical secondary pharmacology resource illuminates target-adverse drug reaction associations of marketed drugs” (Nat Commun, 2023)
